Experimental findings from paper PMC6110523 (Biochemistry, 2018) are described below.

The target in the assay is HER2 (Homo sapiens, UniProt P04626). In words: DiscoverX scanELECT competition binding at […].
Chain of HER2 (P04626 720-987 limits assumed): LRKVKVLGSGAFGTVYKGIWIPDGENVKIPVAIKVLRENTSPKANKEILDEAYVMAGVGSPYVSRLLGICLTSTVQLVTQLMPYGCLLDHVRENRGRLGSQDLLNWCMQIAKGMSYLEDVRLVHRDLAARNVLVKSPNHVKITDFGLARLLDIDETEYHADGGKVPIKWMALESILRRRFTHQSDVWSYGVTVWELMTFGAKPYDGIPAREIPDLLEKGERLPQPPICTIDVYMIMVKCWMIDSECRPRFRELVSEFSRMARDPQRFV

Turning to `CS(=O)(=O)CCNCc1ccc(-c2ccc3ncnc(Nc4ccc(OCc5cccc(F)c5)c(Cl)c4)c3c2)o1` [lapatinib], the “% control at 1 μM” value was 0.
